Experimental findings from PubChem BioAssay AID256 (DTP/NCI, 2004) are described below.

The subject of this experiment is CD2F1 mice, L1210 leukemia ip, survival T/C. Kind of experiment: NCI In Vivo Anticancer Drug Screen. Data for tumor model L1210 Leukemia (intraperitoneal) in CD2F1 (CDF1) mice. To be noted: higher = longer survival. The gist of the method: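 Mice carrying a transplanted tumor received test compound or vehicle alone. The value is the measurement in the treated group divided by that in the vehicle-treated control group.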

The mark [1] stands for this setting: endpoint: mean survival time, dose: 100.0 mg/kg/injection, schedule: Q01DX009 (ip), vehicle: saline with Tween-80.
Setting [2] is: endpoint: mean survival time, dose: 400.0 mg/kg/injection, schedule: Q01DX009 (ip), vehicle: saline with Tween-80.
Where [3] appears, read: endpoint: mean survival time, dose: 200.0 mg/kg/injection, schedule: Q01DX009 (ip), vehicle: saline with Tween-80.
Where [4] appears, read: endpoint: mean survival time, dose: 50.0 mg/kg/injection, schedule: Q01DX009 (ip), vehicle: saline with Tween-80.
[5] abbreviates: endpoint: mean survival time, dose: 100.0 mg/kg/injection, schedule: Q01DX001 (ip), vehicle: saline.
The mark [6] stands for this setting: endpoint: mean survival time, dose: 12.5 mg/kg/injection, schedule: Q01DX009 (ip), vehicle: saline with Tween-80.
Setting [7] is: endpoint: mean survival time, dose: 100.0 mg/kg/injection, schedule: Q04DX003 (ip), vehicle: saline with Tween-80.
The mark [8] stands for this setting: endpoint: mean survival time, dose: 200.0 mg/kg/injection, schedule: Q04DX003 (ip), vehicle: saline with Tween-80.
Where [9] appears, read: endpoint: mean survival time, dose: 400.0 mg/kg/injection, schedule: Q04DX003 (ip), vehicle: saline with Tween-80.

SMILES strings stand for the structures. Where “and” joins values, the source holds several entries; their conditions need not be identical. Equal values may be shown once. Inconclusive results and toxic doses are left out.

Regarding `N#Cc1cn(C2OC(CO)C(O)C2O)c2ncn(N)c(=N)c12` (configuration not stated), the T/C is 110 % of control (endpoint: mean survival time, dose: 25.0 mg/kg/injection, schedule: Q01DX005 (ip), vehicle: water); 111 % of control (endpoint: mean survival time, dose: 50.0 mg/kg/injection, schedule: Q01DX005 (ip), vehicle: water); 118 % of control (endpoint: mean survival time, dose: 100.0 mg/kg/injection, schedule: Q01DX005 (ip), vehicle: water).

As to `CCOC(=O)CCCN(C)C(C)(C)C#N`, the T/C is 103 % of control under setting [1] and 108 % of control under setting [2].

Take `COC(=O)c1ccc(Cl)nc1`: the T/C runs as follows: (endpoint: mean survival time, dose: 75.0 mg/kg/injection, schedule: Q04DX003 (ip), vehicle: saline with Tween-80) 106 % of control; under setting [1], 98 % of control; (endpoint: mean survival time, dose: 150.0 mg/kg/injection, schedule: Q04DX003 (ip), vehicle: saline with Tween-80) 106 % of control; under setting [3], 97 % of control; (endpoint: mean survival time, dose: 300.0 mg/kg/injection, schedule: Q04DX003 (ip), vehicle: saline with Tween-80) 100 % of control; under setting [2], 87 % of control.

On to `C/C=C(\C)C(C)O` (configuration not stated), for which the T/C is 87 % of control (endpoint: mean survival time, dose: 50.0 mg/kg/injection, schedule: Q01DX005 (ip), vehicle: saline); 98 % of control under setting [4]; 92 % of control (endpoint: mean survival time, dose: 50.0 mg/kg/injection, schedule: Q04DX002 (ip), vehicle: saline + alcohol); 102 % of control (endpoint: mean survival time, dose: 100.0 mg/kg/injection, schedule: Q01DX005 (ip), vehicle: saline); 98 % of control under setting [1]; 103 % of control (endpoint: mean survival time, dose: 100.0 mg/kg/injection, schedule: Q04DX002 (ip), vehicle: saline + alcohol). Moreover, the T/C runs as follows: (endpoint: mean survival time, dose: 200.0 mg/kg/injection, schedule: Q01DX005 (ip), vehicle: saline) 94 % of control; under setting [3], 95 % of control; (endpoint: mean survival time, dose: 200.0 mg/kg/injection, schedule: Q04DX002 (ip), vehicle: saline + alcohol) 101 % of control; (endpoint: mean survival time, dose: 400.0 mg/kg/injection, schedule: Q01DX005 (ip), vehicle: saline) 94 % of control; under setting [2], 102 % of control; (endpoint: mean survival time, dose: 400.0 mg/kg/injection, schedule: Q04DX002 (ip), vehicle: saline + alcohol) 103 % of control.

Consider `Oc1ccccc1/C=N/c1nc2ccc(Cl)cc2s1.Oc1ccccc1/C=N/c1nc2ccc(Cl)cc2s1.[Zn]`, for which the T/C by setting is: (endpoint: mean survival time, dose: 25.0 mg/kg/injection, schedule: Q01DX001 (ip), vehicle: saline) 96 % of control; (endpoint: mean survival time, dose: 50.0 mg/kg/injection, schedule: Q01DX001 (ip), vehicle: saline) 91 % of control; under setting [5], 87 % of control.

For the compound `Nc1ncnc2sc3c(c12)CCCC3`, the T/C reads like this: (endpoint: mean survival time, dose: 50.0 mg/kg/injection, schedule: Q04DX003 (ip), vehicle: Klucel (hydroxypropylcellulose) (HPC)) 96 % of control; (endpoint: mean survival time, dose: 100.0 mg/kg/injection, schedule: Q04DX003 (ip), vehicle: Klucel (hydroxypropylcellulose) (HPC)) 100 % of control; (endpoint: mean survival time, dose: 200.0 mg/kg/injection, schedule: Q04DX003 (ip), vehicle: Klucel (hydroxypropylcellulose) (HPC)) 91 % of control.

For `O=S1(=O)Cc2c(Br)c(Br)c(Br)c(Br)c2C1`, the T/C under setting [6] is 90 % of control; the T/C (endpoint: mean survival time, dose: 25.0 mg/kg/injection, schedule: Q01DX009 (ip), vehicle: saline with Tween-80) was 88 % of control; the T/C under setting [4] was 86 % of control; the T/C under setting [7] is 101 % of control; the T/C under setting [8] was 110 % of control; the T/C under setting [9] is 96 % of control.

With `O=Cc1cc(C(=O)O)ccc1O`, the T/C runs as follows: under setting [5], 100 % of control; (endpoint: mean survival time, dose: 200.0 mg/kg/injection, schedule: Q01DX001 (ip), vehicle: saline) 97 % of control; (endpoint: mean survival time, dose: 400.0 mg/kg/injection, schedule: Q01DX001 (ip), vehicle: saline) 94 % of control.

On to `CC(C)c1ccccc1OS(=O)(=O)c1cccc([N+](=O)[O-])c1`, for which the T/C runs as follows: under setting [1], 98 % of control; under setting [7], 100 % of control; under setting [3], 100 % of control; under setting [8], 99 % of control; under setting [2], 100 % of control; under setting [9], 106 % of control.

On to `CCOC(=O)c1cccc2ncccc12`, for which the T/C (endpoint: mean survival time, dose: 75.0 mg/kg/injection, schedule: Q04DX003 (ip), vehicle: saline) was 101 % of control; the T/C (endpoint: mean survival time, dose: 150.0 mg/kg/injection, schedule: Q04DX003 (ip), vehicle: saline) is 93 % of control; the T/C (endpoint: mean survival time, dose: 300.0 mg/kg/injection, schedule: Q04DX003 (ip), vehicle: saline) was 97 % of control.

Regarding `CCOC(=O)C(Cc1ccc(CC(NC(C)=O)(C(=O)OCC)C(=O)OCC)cc1)(NC(C)=O)C(=O)OCC`, the T/C (endpoint: mean survival time, dose: 12.5 mg/kg/injection, schedule: Q01DX009 (ip), vehicle: other) was 96 % of control; the T/C (endpoint: mean survival time, dose: 25.0 mg/kg/injection, schedule: Q01DX009 (ip), vehicle: other) is 94 % of control; the T/C (endpoint: mean survival time, dose: 50.0 mg/kg/injection, schedule: Q01DX009 (ip), vehicle: other) was 97 % of control; the T/C (endpoint: mean survival time, dose: 100.0 mg/kg/injection, schedule: Q01DX009 (ip), vehicle: other) is 91 % of control; the T/C (endpoint: mean survival time, dose: 200.0 mg/kg/injection, schedule: Q01DX009 (ip), vehicle: other) is 92 % of control.

On to `CCCCc1ccc2nc(NC(=O)OC)[nH]c2c1`, for which the T/C is, setting by setting: (endpoint: mean survival time, dose: 6.25 mg/kg/injection, schedule: Q01DX009 (ip), vehicle: saline with Tween-80) 107 % of control; under setting [6], 113 % of control; under setting [1], 166 % of control; under setting [3], 86 % of control.

For `COC1OC2COC(c3ccccc3)OC2C2OC12` (configuration not stated), the T/C under setting [1] was 94 % of control, the T/C under setting [3] is 92 % of control and the T/C under setting [2] was 97 % of control.

Take `COC(=O)c1ccoc1`: the T/C is 98 % of control (endpoint: median survival time, dose: 12.5 mg/kg/injection, schedule: Q01DX009 (ip), vehicle: saline); 100 % of control (endpoint: median survival time, dose: 25.0 mg/kg/injection, schedule: Q01DX009 (ip), vehicle: saline); 100 % of control (endpoint: median survival time, dose: 50.0 mg/kg/injection, schedule: Q01DX009 (ip), vehicle: saline); 104 % of control (endpoint: median survival time, dose: 100.0 mg/kg/injection, schedule: Q01DX009 (ip), vehicle: saline); 105 % of control (endpoint: median survival time, dose: 200.0 mg/kg/injection, schedule: Q01DX009 (ip), vehicle: saline); 114 % of control (endpoint: median survival time, dose: 400.0 mg/kg/injection, schedule: Q01DX009 (ip), vehicle: saline).

Take `Nc1nc(N)nc(-c2ccccc2)n1`: the T/C by setting is: under setting [7], 96 % of control; under setting [8], 98 % of control; under setting [9], 105 % of control.

For `C=CCOCC(O)C[As](=O)(O)c1cccc(Cl)c1` (configuration not stated), the T/C by setting is: (endpoint: mean survival time, dose: 6.25 mg/kg/injection, schedule: Q04DX003 (ip), vehicle: saline with Tween-80) 103 % of control; (endpoint: mean survival time, dose: 12.5 mg/kg/injection, schedule: Q04DX003 (ip), vehicle: saline with Tween-80) 119 % of control.

For `O=C(CC1CCCCC1)N/N=C/c1cccc([N+](=O)[O-])c1`, the T/C reads like this: under setting [1], 90 % of control; under setting [3], 93 % of control; under setting [2], 90 % of control.

For the compound `COc1ccc2cc[n+](C)c(Cc3ccc(OC)c(Oc4ccc(Cc5c(OC)ccc6cc[n+](C)cc56)cc4)c3)c2c1`, the T/C is 98 % of control (endpoint: mean survival time, dose: 1.56 mg/kg/injection, schedule: Q04DX003 (ip), vehicle: other); 102 % of control (endpoint: mean survival time, dose: 3.13 mg/kg/injection, schedule: Q04DX003 (ip), vehicle: other); 98 % of control and 103 % of control (endpoint: mean survival time, dose: 6.25 mg/kg/injection, schedule: Q04DX003 (ip), vehicle: other).

With `NC(C1SCCS1)C(O)C(O)C(O)CO` (configuration not stated), the T/C reads like this: under setting [7], 101 % of control; under setting [8], 104 % of control; under setting [9], 98 % of control.

Regarding `S=C(N/N=C1/CCCC/C1=N/NC(=S)N1CCOCC1)N1CCOCC1`, the T/C (endpoint: median survival time, dose: 1.5 mg/kg/injection, schedule: Q01DX009 (ip), vehicle: saline with Tween-80) was 95 % of control; the T/C (endpoint: median survival time, dose: 3.0 mg/kg/injection, schedule: Q01DX009 (ip), vehicle: saline with Tween-80) was 96 % of control; the T/C (endpoint: median survival time, dose: 6.0 mg/kg/injection, schedule: Q01DX009 (ip), vehicle: saline with Tween-80) is 108 % of control; the T/C (endpoint: median survival time, dose: 12.0 mg/kg/injection, schedule: Q01DX009 (ip), vehicle: saline with Tween-80) is 109 % of control.

Turning to `NP(=O)(OC(c1ccccc1)C12CC3CC(CC(C3)C1)C2)N(CCCl)CCCl` (configuration not stated), the T/C by setting is: (endpoint: mean survival time, dose: 62.5 mg/kg/injection, schedule: Q01DX001 (ip), vehicle: other) 92 % of control; (endpoint: mean survival time, dose: 125.0 mg/kg/injection, schedule: Q01DX001 (ip), vehicle: other) 97 % of control; (endpoint: mean survival time, dose: 250.0 mg/kg/injection, schedule: Q01DX001 (ip), vehicle: other) 102 % of control; (endpoint: mean survival time, dose: 500.0 mg/kg/injection, schedule: Q01DX001 (ip), vehicle: other) 105 % of control.
